Assay results: ChEMBL document CHEMBL3098072 (Bioorg Med Chem, 2014)
Converted amounts (≈) assume the structure as drawn. The source made the active and inactive calls. The rule behind the calls is not given here.

Assays:
[1] = test system: Mycobacterium tuberculosis; experiment: microbe, parasite or virus in culture; conditions: H37Rv, 96 h
[2] = test system: Bacillus anthracis; experiment: microbe, parasite or virus in culture; conditions: Sterne 34F2, 20 h
[3] = test system: HeLa; experiment: Cytotoxicity against human HeLa cells at 64 uM after 2 hrs by MTS assay relative to control; assay type: cell-based
[4] = Cytotoxicity against mouse J774A1 cells at 64 uM after 2 hrs by MTS assay relative to control; assay type: cell-based; conditions: j774.a1, 2 h
[5] = target: T1, Inorganic pyrophosphatase (Mycobacterium tuberculosis (strain ATCC 25618 / H37Rv), UniProt P9WI55); experiment: Inhibition of Mycobacterium tuberculosis PPase using inorganic pyrophosphate as substrate preincubated for 2 mins followed by substrate addition measured after 6 mins by malachite green assay
T1 sequence (P9WI55 whole entry): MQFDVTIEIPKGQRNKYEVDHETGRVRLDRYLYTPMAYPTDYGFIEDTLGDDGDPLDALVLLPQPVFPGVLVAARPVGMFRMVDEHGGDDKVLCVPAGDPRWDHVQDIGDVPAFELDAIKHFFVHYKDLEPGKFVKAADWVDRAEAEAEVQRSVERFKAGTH

[6] = target: T2, Inorganic pyrophosphatase (Mycobacterium tuberculosis (strain ATCC 25618 / H37Rv)) (UniProt P9WI55); experiment: Inhibition of Mycobacterium tuberculosis PPase at 100 uM using inorganic pyrophosphate as substrate preincubated for 2 mins followed by substrate addition measured after 6 mins by malachite green assay
T2 sequence (whole entry): T1 sequence (P9WI55 whole entry)

[7] = Solubility of the compound in DMSO; assay type: physicochemical
[8] = test system: Staphylococcus aureus; experiment: microbe, parasite or virus in culture; conditions: 20 h
[9] = test system: Bacillus subtilis; experiment: microbe, parasite or virus in culture; conditions: 20 h

| SMILES | MIC [1] [µM] | inhibition [6] | other results |
| --- | --- | --- | --- |
| Nc1ccc(-c2cnnc(N3CCC(c4cccc(Cl)c4)C3)n2)cc1 (stereo not drawn) | 5.7 (≈ 2.01 µg/mL) |  | MBC [2]: 128 µM (≈ 45 µg/mL); MIC [2]: 16 µM (≈ 5.63 µg/mL); Activity [3]: Non-toxic; Activity [4]: Non-toxic |
| Cc1ccc(-c2cnnc(N3CCC(c4cccc(Cl)c4)C3)n2)o1 (stereo not drawn) | 61 (≈ 20.8 µg/mL) | 45.6% | IC50 [5]: 148 µM |
| Cc1ccc(-c2cnnc(N3CCC(c4cccc(F)c4)C3)n2)o1 (stereo not drawn) | 38.9 (≈ 12.6 µg/mL) | 21.3% |  |
| CO[C@H]1/C=C/O[C@@]2(C)Oc3c(C)c(O)c4c(O)c(c(/C=N/N5CCN(C)CC5)c(O)c4c3C2=O)NC(=O)/C(C)=C\C=C\[C@H](C)[C@H](O)[C@@H](C)[C@@H](O)[C@@H](C)[C@H](OC(C)=O)[C@@H]1C [RIFAMPIN] | 0.08 (≈ 0.0658 µg/mL) |  |  |
| Cc1ccc(-c2cnnc(N3CCC(n4cnc5c(N)ncnc54)C3)n2)o1 (stereo not drawn) | > 128 | inactive |  |
| Clc1cccc(C2CCN(c3nncc(-c4ccc5c(c4)OCO5)n3)C2)c1 (stereo not drawn) | > 16 |  | solubility [7]: < 100 µM |
| Nc1cccc(-c2cnnc(N3CCC(c4cccc(Cl)c4)C3)n2)c1 (stereo not drawn) |  |  | Activity [3]: Non-toxic; Activity [4]: Non-toxic |
| Cc1ccc(-c2cnnc(N3CCC(c4cccc(C#N)c4)C3)n2)o1 (stereo not drawn) | 64.4 (≈ 21.3 µg/mL) | 10.3% |  |
| O=[N+]([O-])c1cccc(-c2cnnc(N3CCC(c4cccc(Cl)c4)C3)n2)c1 (stereo not drawn) | > 128 | 39.4% | IC50 [5]: 118 µM |
| Cc1ccc(-c2cnnc(N3CCC(c4cccc(OCc5ccccc5)c4)C3)n2)o1 (stereo not drawn) |  | 73.2% | IC50 [5]: 63.2 µM |
| Clc1cccc(C2CCN(c3nncc(-c4ccccc4)n3)C2)c1 (stereo not drawn) |  |  | Activity [3]: Non-toxic; Activity [4]: Non-toxic |
| Cc1ccc(-c2cnnc(N3CCC(c4cccc([N+](=O)[O-])c4)C3)n2)o1 (stereo not drawn) | > 16 |  | solubility [7]: < 100 µM |
| COc1ccc(-c2cnnc(N3CCC(c4cccc(Cl)c4)C3)n2)cc1OC (stereo not drawn) |  |  | Activity [3]: Non-toxic; Activity [4]: Non-toxic |
| Cc1ccc(-c2cnnc(N3CCC(c4cccc(N)c4)C3)n2)o1 (stereo not drawn) | 70.1 (≈ 22.5 µg/mL) | 33.4% |  |
| O=[N+]([O-])c1ccc(-c2cnnc(N3CCC(c4cccc(Cl)c4)C3)n2)cc1 (stereo not drawn) | 31.2 (≈ 11.9 µg/mL) | 30.3% |  |
| Cc1ccc(-c2cnnc(N3CCC(c4cccc(O)c4)C3)n2)o1 (stereo not drawn) | 60.3 (≈ 19.4 µg/mL) | inactive | MIC [8]: > 50 µM; MBC [2]: 128 µM (≈ 41.3 µg/mL); MIC [2]: 64 µM (≈ 20.6 µg/mL); MIC [9]: 128 µM (≈ 41.3 µg/mL); Activity [3]: Non-toxic; Activity [4]: Non-toxic |
| COC(=O)c1cccc(-c2ccc(-c3cnnc(N4CCC(c5cccc(Cl)c5)C4)n3)o2)c1 (stereo not drawn) | > 16 |  | solubility [7]: < 100 µM |
| O=[N+]([O-])c1cccc(-c2ccc(-c3cnnc(N4CCC(c5cccc(Cl)c5)C4)n3)o2)c1 (stereo not drawn) | > 16 |  | solubility [7]: < 100 µM |
| Clc1cccc(C2CCN(c3nncc(-c4ccc(Br)cc4)n3)C2)c1 (stereo not drawn) | 30.7 (≈ 12.8 µg/mL) | 53% | IC50 [5]: 33.3 µM |
| O=[N+]([O-])c1cccc(-c2ccc(-c3cnnc(N4CCC(c5cccc(Cl)c5)C4)n3)cc2)c1 (stereo not drawn) | > 128 | inactive |  |
| CN[C@H](CC(C)C)C(=O)N[C@H]1C(=O)N[C@@H](CC(N)=O)C(=O)N[C@H]2C(=O)N[C@H]3C(=O)N[C@H](C(=O)N[C@H](C(=O)O)c4cc(O)cc(O)c4-c4cc3ccc4O)[C@H](O)c3ccc(c(Cl)c3)Oc3cc2cc(c3O[C@@H]2O[C@H](CO)[C@@H](O)[C@H](O)[C@H]2O[C@H]2C[C@](C)(N)[C@H](O)[C@H](C)O2)Oc2ccc(cc2Cl)[C@H]1O [VANCOMYCIN] |  |  | MBC [2]: < 1 µM; MIC [2]: < 1 µM; MBC [9]: < 1 µM; MIC [9]: < 1 µM |
| NNC(=O)c1ccncc1 [ISONIAZID] | 0.45 (≈ 0.0617 µg/mL) |  |  |
| Cc1ccc(-c2cnnc(N3CCC(c4ccccc4)C3)n2)o1 (stereo not drawn) | 40.5 (≈ 12.4 µg/mL) | 19.7% |  |
| Cc1ccc(-c2cnnc(N3CCC(c4cccc(C(F)(F)F)c4)C3)n2)o1 (stereo not drawn) | 52.4 (≈ 19.6 µg/mL) | 37.8% | IC50 [5]: 355 µM |
| Cc1ccc(-c2cnnc(N3CCC(c4ccc(O)c(O)c4)C3)n2)o1 (stereo not drawn) | > 128 | inactive |  |
| COc1ccc(C2CCN(c3nncc(-c4ccc(C)o4)n3)C2)cc1O (stereo not drawn) | > 128 | 5% |  |
| FC(F)(F)c1ccccc1-c1ccc(-c2cnnc(N3CCC(c4cccc(Cl)c4)C3)n2)o1 (stereo not drawn) | > 128 | 67.7% | IC50 [5]: 38.3 µM |
